# Measured values: patent US9079899B2, “Anti-staphylococcal celecoxib derivatives” (THE OHIO STATE UNIVERSITY, priority 2010, dated 2015)
# Where two headings read alike, the source gives them in different places.
# What was measured:
# MRSA (SCCmec VT) = experiment: MIC, broth microdilution; format: cell-based, methicillin-resistant Staphylococcus aureus
# [1] = tested on: S. epidermidis (ATCC 35984); experiment: MIC, broth microdilution; format: cell-based; details: for MIC S. epidermidis (ATCC 35984): CAMHB, 24 h, 37° C.; for MIC: S. epidermidis (ATCC 35984)
# S. aureus (ATCC 29213) = experiment: MIC, broth microdilution; format: cell-based
# [2] = tested on: HT-29 human colon adenocarcinoma cells; experiment: Antiproliferative assay (MTT); format: cell-based; details: 24-h exposure, 10% FBS-supplemented RPMI 1640, MTT; for IC50: Homo sapiens, HT-29
# Procedure: As celecoxib has been reported to be cytotoxic to cancer cells, the growth inhibitory activities of celecoxib and selected derivatives were assessed in. HT-29 human colon adenocarcinoma cells after 24-h exposure in 10% FBS-supplemented RPMI 1640 medium.
# Antiproliferative assay. The cytotoxicity of individual test agents in HT-29 human colon adenocarcinoma cells was evaluated by using the 3-(4,5-dimethylthiazol-2-yl)-2,5-diphenyltetrazolium (MTT) assay. Briefly, HT-29 cells were seeded into 96-well plates at 1×10^4 cells/well (with a minimum of 6 wells per test condition) in RPMI 1640 medium supplemented with 10% FBS and 10 μg/ml of gentamicin. After overnight incubation at 37° C. under 5% CO2, the medium from each well was removed and replenished with fresh aliquots of the same medium containing various concentrations of test agents dissolved in DMSO (final concentration, 0.1%). Control cells were treated with DMSO alone at a concentration equal to that in drug-treated cells. After 24 h of drug exposure, the medium was removed and replaced by 100 μl of 0.5 mg/ml MTT in 10% FBS-containing medium, and the cells were incubated in the CO2 incubator at 37° C. for 2 h. Subsequently, medium was removed from each well, and the reduced MTT dye was dissolved with 100 μl of DMSO per well. Absorbance at 570 nm was measured with a plate reader. The 50% inhibitory concentration (IC50) of each drug was determined from dose-response curves by using CalcuSyn software (Biosoft, Cambridge, United Kingdom).
# MRSA (ATCC 33592) = experiment: MIC, broth microdilution; format: cell-based, methicillin-resistant Staphylococcus aureus
# S. aureus (ATCC 12598) = experiment: MIC, broth microdilution; format: cell-based; details: Staphylococcus aureus, ATCC12598
# MRSA (ATCC 49476) = experiment: MIC, broth microdilution; format: cell-based, methicillin-resistant Staphylococcus aureus; details: Staphylococcus aureus
# [3] = Table XIII, S. aureus (SSCmecVT)
# [4] = Staphylococcus aureus, ATCC29213, 24 h, CAMHB, 24 h, 37° C., read-out: MIC S. aureus (ATCC 29213)
structure (smiles),measurement,setting,value
CC1(C)S[C@@H]2[C@H](NC(=O)[C@H](N)c3ccccc3)C(=O)N2[C@H]1C(=O)O [Ampicillin],MIC,MRSA (SCCmec VT); [3],> 64 mg/L
"O=C(N[C@H](CO)[C@H](O)c1ccc([N+](=O)[O-])cc1)C(Cl)Cl [Chloramphenicol, chloramphenicol, reference compound]",MIC,MRSA (SCCmec VT); [3],> 64 mg/L
CCCCc1ccc(-c2cc(C(F)(F)F)nn2-c2ccc(C(N)=O)cc2)cc1 [Compound 10],MIC S. epidermidis (ATCC 35984),[1],did not exhibit appreciable activity at 64 μg/ml or improved activity relative to celecoxib
same,MIC S. aureus (ATCC 29213),"S. aureus (ATCC 29213); CAMHB, 24 h, 37° C.",did not exhibit appreciable activity at 64 μg/ml or improved activity relative to celecoxib
NS(=O)(=O)c1ccc(-n2nc(C(F)(F)F)cc2-c2ccc(-c3ccc(Cl)cc3)cc2)cc1 [Compound 11],IC50 HT-29 cells,[2],12.5 mg/L
same,MIC S. epidermidis (ATCC 35984),[1],8 mg/L
same,MIC S. aureus (ATCC 29213),"S. aureus (ATCC 29213); CAMHB, 24 h, 37° C.",4 mg/L
FC(F)(F)c1cc(-c2ccc3c(ccc4ccccc43)c2)n(-c2ccccc2)n1 [Compound 21],MIC S. epidermidis (ATCC 35984),[1],did not exhibit appreciable activity at 64 μg/ml or improved activity relative to celecoxib
same,MIC S. aureus (ATCC 29213),"S. aureus (ATCC 29213); CAMHB, 24 h, 37° C.",did not exhibit appreciable activity at 64 μg/ml or improved activity relative to celecoxib
NCC(=O)Nc1ccc(-n2nc(C(F)(F)F)cc2-c2ccc(-c3ccc(C(F)(F)F)cc3)cc2)cc1 [Compound 22],MIC S. epidermidis (ATCC 35984),[1],did not exhibit appreciable activity at 64 μg/ml or improved activity relative to celecoxib
same,MIC S. aureus (ATCC 29213),"S. aureus (ATCC 29213); CAMHB, 24 h, 37° C.",did not exhibit appreciable activity at 64 μg/ml or improved activity relative to celecoxib
NCC(=O)Nc1ccc(-n2nc(C(F)(F)F)cc2-c2ccc3c(ccc4ccccc43)c2)cc1 [Compound 23],IC50 HT-29 cells,[2],3.6 mg/L
same,MIC S. epidermidis (ATCC 35984),[1],4 mg/L
same,MIC S. aureus (ATCC 29213),"S. aureus (ATCC 29213); CAMHB, 24 h, 37° C.",4 mg/L
NCC(=O)Nc1ccc(-n2nc(C(F)(F)F)cc2-c2ccc3c(c2)Nc2ccccc2S3)cc1 [Compound 24],IC50 HT-29 cells,[2],6.2 mg/L
same,MIC S. epidermidis (ATCC 35984),[1],4 mg/L
same,MIC S. aureus (ATCC 29213),"S. aureus (ATCC 29213); CAMHB, 24 h, 37° C.",4 mg/L
NCC(=O)Nc1ccc(-n2nc(C(F)(F)F)cc2-c2ccc3oc4ccccc4c3c2)cc1 [Compound 25],IC50 HT-29 cells,[2],6.5 mg/L
same,MIC S. epidermidis (ATCC 35984),[1],4 mg/L
same,MIC S. aureus (ATCC 29213),"S. aureus (ATCC 29213); CAMHB, 24 h, 37° C.",4 mg/L
NCCC(=O)Nc1ccc(-n2nc(C(F)(F)F)cc2-c2ccc(-c3ccc(C(F)(F)F)cc3)cc2)cc1 [Compound 26],IC50 HT-29 cells,[2],4.2 mg/L
same,MIC S. epidermidis (ATCC 35984),[1],4 mg/L
same,MIC S. aureus (ATCC 29213),"S. aureus (ATCC 29213); CAMHB, 24 h, 37° C.",4 mg/L
NCCC(=O)Nc1ccc(-n2nc(C(F)(F)F)cc2-c2ccc3c(ccc4ccccc43)c2)cc1 [Compound 27],IC50 HT-29 cells,[2],6 mg/L
same,MIC S. epidermidis (ATCC 35984),[1],4 mg/L
same,MIC S. aureus (ATCC 29213),"S. aureus (ATCC 29213); CAMHB, 24 h, 37° C.",4 mg/L
NCCC(=O)Nc1ccc(-n2nc(C(F)(F)F)cc2-c2ccc3c(c2)Nc2ccccc2S3)cc1 [Compound 28],IC50 HT-29 cells,[2],7.5 mg/L
same,MIC S. epidermidis (ATCC 35984),[1],4 mg/L
same,MIC S. aureus (ATCC 29213),"S. aureus (ATCC 29213); CAMHB, 24 h, 37° C.",4 mg/L
NCCC(=O)Nc1ccc(-n2nc(C(F)(F)F)cc2-c2ccc3oc4ccccc4c3c2)cc1 [Compound 29],IC50 HT-29 cells,[2],7.2 mg/L
same,MIC S. epidermidis (ATCC 35984),[1],4 mg/L
same,MIC S. aureus (ATCC 29213),"S. aureus (ATCC 29213); CAMHB, 24 h, 37° C.",4 mg/L
NCCCC[C@@H](N)C(=O)Nc1ccc(-n2nc(C(F)(F)F)cc2-c2ccc3c(ccc4ccccc43)c2)cc1 [Compound 30],IC50 HT-29 cells,[2],3.2 mg/L
same,MIC S. epidermidis (ATCC 35984),[1],4 mg/L
same,MIC S. aureus (ATCC 29213),"S. aureus (ATCC 29213); CAMHB, 24 h, 37° C.",4 mg/L
NCCCC[C@@H](N)C(=O)Nc1ccc(-n2nc(C(F)(F)F)cc2-c2ccc3c(c2)Nc2ccccc2S3)cc1 [Compound 31],IC50 HT-29 cells,[2],17.5 mg/L
same,MIC S. epidermidis (ATCC 35984),[1],4 mg/L
same,MIC S. aureus (ATCC 29213),"S. aureus (ATCC 29213); CAMHB, 24 h, 37° C.",4 mg/L
NCCCC[C@@H](N)C(=O)Nc1ccc(-n2nc(C(F)(F)F)cc2-c2ccc3oc4ccccc4c3c2)cc1 [Compound 32],MIC S. epidermidis (ATCC 35984),[1],did not exhibit appreciable activity at 64 μg/ml or improved activity relative to celecoxib
same,MIC S. aureus (ATCC 29213),"S. aureus (ATCC 29213); CAMHB, 24 h, 37° C.",did not exhibit appreciable activity at 64 μg/ml or improved activity relative to celecoxib
NCCCC[C@H](N)C(=O)Nc1ccc(-n2nc(C(F)(F)F)cc2-c2ccc(-c3ccc(C(F)(F)F)cc3)cc2)cc1 [Compound 33],IC50 HT-29 cells,[2],3.3 mg/L
same,MIC S. epidermidis (ATCC 35984),[1],4 mg/L
same,MIC S. aureus (ATCC 29213),"S. aureus (ATCC 29213); CAMHB, 24 h, 37° C.",4 mg/L
NCCCC[C@H](N)C(=O)Nc1ccc(-n2nc(C(F)(F)F)cc2-c2ccc3c(ccc4ccccc43)c2)cc1 [Compound 34],IC50 HT-29 cells,[2],19.5 mg/L
same,MIC S. epidermidis (ATCC 35984),[1],4 mg/L
same,MIC S. aureus (ATCC 29213),"S. aureus (ATCC 29213); CAMHB, 24 h, 37° C.",2 mg/L
NCCCC[C@H](N)C(=O)Nc1ccc(-n2nc(C(F)(F)F)cc2-c2ccc3c(c2)Nc2ccccc2S3)cc1 [Compound 35],IC50 HT-29 cells,[2],5.2 mg/L
same,MIC S. epidermidis (ATCC 35984),[1],4 mg/L
same,MIC S. aureus (ATCC 29213),"S. aureus (ATCC 29213); CAMHB, 24 h, 37° C.",4 mg/L
"NS(=O)(=O)Nc1ccc(-n2nc(C(F)(F)F)cc2-c2ccc(-c3ccccc3)cc2)cc1 [Compound 42, N-[4-(5-Biphenyl-4-yl-3-trifluoromethyl-pyrazol-1-yl)-phenyl]-aminosulfonamide]",MIC,"MRSA (SCCmec VT); Staphylococcus aureus, MRSA, read-out: MIC MRSA (SCCmec VT)",1 mg/L
same,IC50,[2],16 mg/L
same,MIC,"MRSA (ATCC 33592); Staphylococcus aureus, read-out: MIC MRSA (ATCC 33592)",1 mg/L
same,MIC,S. aureus (ATCC 12598),1 mg/L
same,MIC,MRSA (ATCC 49476),1 mg/L
same,MIC,S. aureus (ATCC 29213); [4],1 mg/L
"NS(=O)(=O)Nc1ccc(-n2nc(C(F)(F)F)cc2-c2ccc3ccccc3c2)cc1 [Compound 45, N-[4-(5-Naphthalen-2-yl-3-trifluoromethyl-pyrazol-1-yl)-phenyl]-aminosulfonamide]",IC50,[2],19 mg/L
same,MIC,S. aureus (ATCC 29213); [4],1 mg/L
NC[C@H]1O[C@H](O[C@H]2[C@H](O)[C@@H](O[C@H]3O[C@H](CO)[C@@H](O)[C@H](N)[C@H]3O)[C@H](N)C[C@@H]2N)[C@H](O)[C@@H](O)[C@@H]1O [Kanamycia],MIC,MRSA (SCCmec VT); [3],> 64 mg/L
"CS(=O)(=O)c1ccc(C2=C(c3ccccc3)C(=O)OC2)cc1 [Rofecoxib, rofecoxib, reference compound]",MIC,"MRSA (SCCmec VT); Staphylococcus aureus, MRSA, Table IX, MRSA (SCCmec VT), read-out: MIC",> 64 mg/L
same,MIC,"MRSA (SCCmec VT); Table IX, MRSA (SCCmec VT)",NE (no effect of the test agent at 64 μg/ml)
same,MIC,"[1]; Staphylococcus epidermidis, ATCC35984, Table IX, read-out: MIC",> 64 mg/L
same,MIC,[1]; Table IX,NE (no effect of the test agent at 64 μg/ml)
same,MIC,"MRSA (ATCC 33592); Staphylococcus aureus, Table IX, MRSA (ATCC 33592), read-out: MIC",> 64 mg/L
same,MIC,"MRSA (ATCC 33592); Table IX, MRSA (ATCC 33592)",NE (no effect of the test agent at 64 μg/ml)
same,MIC,"S. aureus (ATCC 29213); Staphylococcus aureus, ATCC29213, Table IX, S. aureus (ATCC 29213), read-out: MIC",> 64 mg/L
same,MIC,"S. aureus (ATCC 29213); Table IX, S. aureus (ATCC 29213)",NE (no effect of the test agent at 64 μg/ml)
"[H]/N=C(/N)N[C@H]1[C@H](O)[C@@H](O)[C@H](O[C@@H]2O[C@@H](C)[C@](O)(C=O)[C@H]2O[C@@H]2O[C@@H](CO)[C@H](O)[C@@H](O)[C@@H]2NC)[C@@H](N/C(N)=N\[H])[C@@H]1O [Streptomycin, streptomycin, reference compound]",MIC,MRSA (SCCmec VT); [3],> 64 mg/L
"CN(C)[C@@H]1C(O)=C(C(N)=O)C(=O)[C@@]2(O)C(O)=C3C(=O)c4c(O)cccc4[C@@](C)(O)[C@H]3C[C@@H]12 [Tetracycline, tetracycline, reference compound]",MIC,MRSA (SCCmec VT); [3],16 mg/L
